Source: patent US12246089B2, “Method for treatment of a viral-mediated infectious disease” (Virothera Pharmaceuticals LLC, priority 2020, dated 2025)
Read-outs that look alike come from different tables or passages of the source.

What was measured:
SARS-CoV = settings: by interfering with glycosylation of ACE2; cited from earlier work
SARS-CoV-2 = settings: in vitro; cited from earlier work
COVID-19 = settings: cited from earlier work
[1] = Encapsulation efficiency and loading capacity of niclosamide by HPLC; settings: niclosamide in niclosamide, HPLC 333-346 nm
[2] = tested on: severe coronavirus disease 2019 patients with coagulopathy; settings: cited from earlier work
inhalation injury (IHI) = settings: nebulized; cited from earlier work
patients with COPD = settings: cited from earlier work
[3] = cited from earlier work
[4] = target: SARS-CoV-2 spike glycoprotein (SGP) (Severe acute respiratory syndrome coronavirus 2, UniProt P0DTC2); settings: cited from earlier work
[5] = tested on: viruses including COVID-19 viruses; settings: cited from earlier work

Q: Which results are given for CCN(CCO)CCCC(C)Nc1ccnc2cc(Cl)ccc12 (stereo not drawn) [hydroxychloroquine]?
A: replication of SARS-CoV (SARS-CoV): specifically inhibit the replication of SARS-CoV; viral copy number of SARS-CoV-2 (SARS-CoV-2): effectively reduce the viral copy number; clinical benefit of combination with azithromycin (COVID-19; 11 patients with severe COVID-19): no evidence of clinical benefit; effectiveness in COVID-19-associated pneumonia (COVID-19; several clinical trials in China): to various degree effective; clinical effect in combination with azithromycin (COVID-19; small open-label non-randomized clinical trial from France): positive effect

Q: Which results are given for O=C(Nc1ccc([N+](=O)[O-])cc1Cl)c1cc(Cl)ccc1O [niclosamide]?
A: encapsulation efficiency [1]: 90%; loading capacity [1]: 10.0%

Q: Which mortality ([2]; patients meeting sepsis induced coagulopathy (SIC) criteria ≥4, heparin therapy (vs 64.2%, P=0.029)) does the source give for heparin here?
A: Its mortality is 40.0%.

Q: What about the mortality ([2]; patients with SIC score <4, heparin therapy (vs 22.6%, P=0.419)) of the same compound?
A: The mortality was 29.0%.

Q: What about the “lung function and mortality in IHI” value (inhalation injury (IHI)) of the same compound?
A: Its value is “promotes improvement in lung function and decreased mortality”.

Q: What about the lung function (patients with COPD; inhaled, 21 days of treatment, COPD patients receiving pulmonary rehabilitation) of the same compound?
A: The lung function was “significantly improves lung function”.

Q: And the “safety of inhaled nebulized UFH” value (patients with COPD; patients with moderate to very severe COPD)?
A: The value was “safe”.

Q: What about the plasma protein binding [3] of the same compound?
A: The plasma protein binding was “high plasma protein binding”.

Q: What about the SGP binding affinity [4] of the same compound?
A: Its SGP binding affinity is “high sub-nanomolar affinity”.

Q: And the “binding affinity to viruses” value [5]?
A: Its value is “nanomolar to sub-nanomolar”.
